Laboratory results as given in US9458104B2 (priority 2012, dated 2016).

Assays:
RORγ = target: T1, RORγ (UniProt P51449); format: cell-based; settings: 293T cells, 16 h; for pIC50 (FF): firefly (FF) luciferase; for pIC50 (REN): renilla normalised (RENnorm) luciferase
T1 construct: hRORg-LBD|aa259-518|NP_005051.2; hRORgt|aa1-497|NP_001001523 (RORg, t isoform, 497aa); mRORg-LBD|aa264-516|NP_035411
T1 sequence (P51449 1-518): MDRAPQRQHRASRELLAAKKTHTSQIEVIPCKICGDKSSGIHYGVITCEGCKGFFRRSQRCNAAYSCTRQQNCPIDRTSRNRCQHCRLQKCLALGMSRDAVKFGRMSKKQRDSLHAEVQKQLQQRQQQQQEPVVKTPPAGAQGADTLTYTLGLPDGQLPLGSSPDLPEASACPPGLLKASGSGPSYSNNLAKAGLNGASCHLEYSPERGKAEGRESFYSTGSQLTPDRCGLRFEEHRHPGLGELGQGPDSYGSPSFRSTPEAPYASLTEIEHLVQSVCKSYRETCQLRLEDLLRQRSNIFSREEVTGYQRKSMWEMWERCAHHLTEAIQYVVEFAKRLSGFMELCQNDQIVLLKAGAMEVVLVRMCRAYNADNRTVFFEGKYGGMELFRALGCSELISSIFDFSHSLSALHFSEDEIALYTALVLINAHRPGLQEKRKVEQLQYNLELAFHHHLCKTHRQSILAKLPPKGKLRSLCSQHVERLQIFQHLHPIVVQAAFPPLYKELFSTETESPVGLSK

[1] = target: T2, RORγ ligand binding domain (LBD) (Homo sapiens, UniProt P51449); experiment: TR-FRET Activity Assay (ligand sensing assay, RORγ-LBD / coactivator peptide interaction); format: biochemical
T2 construct: made in house; host or cells: E. coli BL-21 (BL3), vector pDEST15
T2 sequence (P51449 269-508 limits assumed): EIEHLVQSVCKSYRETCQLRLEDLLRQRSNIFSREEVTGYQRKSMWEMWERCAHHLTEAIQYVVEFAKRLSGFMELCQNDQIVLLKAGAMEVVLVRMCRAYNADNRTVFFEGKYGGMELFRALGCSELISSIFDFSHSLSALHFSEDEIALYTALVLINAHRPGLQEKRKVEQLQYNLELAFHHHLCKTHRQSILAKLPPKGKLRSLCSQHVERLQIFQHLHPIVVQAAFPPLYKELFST
How it was run: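 GST-RORγ LBD expressed in bacteria, 20–60 ng/well, with biotinylated coactivator peptide 200–600 nM, streptavidin-APC and Eu-anti-GST. Buffer: 20 mM Tris-HCl pH 6.8, 60 mM KCl, 1 mM DTT, 5 mM MgCl2, BSA; 1% DMSO. LANCE TR-FRET 665/615 nm ratio; IC50 from four-parameter logistic fit.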

Compound | pIC50 (FF) (RORγ) | pIC50 (REN) (RORγ) | IC50 [1]
CC(C)(C)NS(=O)(=O)c1ccc(-c2c(Cl)c(C(=O)N[C@H]3C[C@H](C(=O)O)C3)nn2CC2CCCCC2)cc1C(F)(F)F [Example 108, trans-3-(5-(4-(N-(tert-Butyl)sulfamoyl)-3-(trifluoromethyl)phenyl)-4-chloro-1-(cyclohexylmethyl)-1H-pyrazole-3-carboxamido)cyclobutanecarboxylic acid] | 6.4 | 6.4 | 501 nM
CC(C)(C)NS(=O)(=O)c1ccc(-c2c(F)c(C(=O)NCCC(C)(C)C(=O)O)nn2CC2CCCCC2)cc1C(F)(F)F [Example 109, 4-(5-(4-(N-(tert-Butyl)sulfamoyl)-3-(trifluoromethyl)phenyl)-1-(cyclohexylmethyl)-4-fluoro-1H-pyrazole-3-carboxamido)-2,2-dimethylbutanoic acid] | 6.7 | 6.8 | 501 nM
CC(C)(C)NS(=O)(=O)c1ccc(-c2cc(C(=O)N[C@H]3C[C@H](C(=O)O)C3)nn2CC2CCCCC2)c(Cl)c1Cl [Example 112, trans-3-(5-(4-(N-(tert-Butyl)sulfamoyl)-2,3-dichlorophenyl)-1-(cyclohexylmethyl)-1H-pyrazole-3-carboxamido)cyclobutanecarboxylic acid] | 6.9 | 6.9 | 316 nM
CC(C)(C)NS(=O)(=O)c1ccc(-c2cc(C(=O)NC3CCS(=O)(=O)CC3)nn2CC2CCCCC2)c(Cl)c1Cl [Example 112/1] | 7.5 | 7.6 | 501 nM
Cc1c(C(=O)N[C@H]2C[C@H](C(=O)O)C2)cn(-c2cc(C(C)(C)C)cc(C3(C)CC3)c2)c1C(=O)c1ccccc1 [Example 301, (trans)-3-(5-Benzoyl-1-(3-(tert-butyl)-5-(1-methylcyclopropyl)phenyl)-4-methyl-1H-pyrrole-3-carboxamido)cyclobutanecarboxylic acid] | 6.7 | 6.8 | 501 nM
CCS(=O)(=O)c1ccc(CNC(=O)c2cc(-c3ccc(S(=O)(=O)NC(C)(C)C)c(C(F)(F)F)c3)n(CC3CCCCC3)c2C)cc1 [Example 302, 5-(4-(N-(tert-Butyl)sulfamoyl)-3-(trifluoromethyl)phenyl)-1-(cyclohexylmethyl)-N-(4-(ethylsulfonyl)benzyl)-2-methyl-1H-pyrrole-3-carboxamide] | 7.6 | 7.8 | 6.31 nM
Cc1c(C(=O)NC2CCOCC2)cc(-c2ccc(S(=O)(=O)NC(C)(C)C)c(C(C)(C)C)c2)n1CC(C)(C)C [Example 302/1] | 6.3 | 6.4 | 1580 nM
CC(C)(C)c1cc(-c2cc(C(N)=O)[nH]c2CC2CCCCC2)cc(C(C)(C)C)c1 [Example 303, 5-(Cyclohexylmethyl)-4-(3,5-di-tert-butylphenyl)-1H-pyrrole-2-carboxamide] | < 4.7 | < 4.7 | 501 nM
Cn1c(C(N)=O)cc(-c2cc(C(C)(C)C)cc(C(C)(C)C)c2)c1CC1CCCCC1 [Example 304, 5-(Cyclohexylmethyl)-4-(3,5-di-tert-butylphenyl)-1-methyl-1H-pyrrole-2-carboxamide] | 6.1 | 6.1 | 126 nM
Cc1c(C(N)=O)cn(-c2cc(C(C)(C)C)cc(C(C)(C)C)c2)c1CC1CCCCC1 [Example 305, 5-(Cyclohexylmethyl)-1-(3,5-di-tert-butylphenyl)-4-methyl-1H-pyrrole-3-carboxamide] | 6.3 | 6.3 | 200 nM
CC(C)(C)c1cc(-c2nc(C(N)=O)nn2CC2CCCCC2)cc(C(C)(C)C)c1O [Example 306, 1-(Cyclohexylmethyl)-5-(3,5-di-tert-butyl-4-hydroxyphenyl)-1H-1,2,4-triazole-3-carboxamide] | 5.9 | 6.0 | 794 nM
CC(C)(C)c1cc(-c2nc(C(=O)NC3CC3)nn2CC2CCCCC2)cc(C(C)(C)C)c1 [Example 307, 1-(Cyclohexylmethyl)-N-cyclopropyl-5-(3,5-di-tert-butylphenyl)-1H-1,2,4-triazole-3-carboxamide] | 5.9 | 6.1 | 794 nM
Cc1cc(-c2nc(C(N)=O)nn2CC2CCCCC2)cc(C(C)(C)C)c1O [Example 308, 5-(3-(tert-Butyl)-4-hydroxy-5-methylphenyl)-1-(cyclohexylmethyl)-1H-1,2,4-triazole-3-carboxamide] | 6.0 | 5.9 | 7940 nM
CC(C)(C)c1cc(-c2nc(S(N)(=O)=O)nn2CC2CCCCC2)cc(C(C)(C)C)c1 [Example 309, 1-(Cyclohexylmethyl)-5-(3,5-di-tert-butylphenyl)-1H-1,2,4-triazole-3-sulfonamide] | < 4.7 | < 4.7 | 3160 nM
CC(=O)NS(=O)(=O)c1nc(-c2cc(C(C)(C)C)cc(C(C)(C)C)c2)n(CC2CCCCC2)n1 [Example 310, N-((1-(Cyclohexylmethyl)-5-(3,5-di-tert-butylphenyl)-1H-1,2,4-triazol-3-yl)sulfonyl)acetamide] | < 4.7 | < 4.7 | 12600 nM
CC(C)(C)c1cc(-n2nc(C(N)=O)cc2CC2CCCCC2)cc(C(C)(C)C)c1 [Example 312, 5-(Cyclohexylmethyl)-1-(3,5-di-tert-butylphenyl)-1H-pyrazole-3-carboxamide] | 6.2 | 6.3 | 251 nM
CC(C)(C)c1cc(-n2nc(C(=O)NS(C)(=O)=O)cc2CC2CCCCC2)cc(C(C)(C)C)c1 [Example 312/1] | < 4.7 | < 4.7 | 6310 nM
CC(C)(C)c1cc(-n2nc(C(N)=O)c(Cl)c2CC2CCCCC2)cc(C(C)(C)C)c1 [Example 313, 4-Chloro-5-(cyclohexylmethyl)-1-(3,5-di-tert-butylphenyl)-1H-pyrazole-3-carboxamide] | 6.3 | 6.4 | 100 nM
CC(C)(C)c1cc(-n2nc(C(N)=O)c(Cl)c2CC2CCCCC2)cc(C(C)(C)C)n1 [Example 315, 4-Chloro-5-(cyclohexylmethyl)-1-(2,6-di-tert-butylpyridin-4-yl)-1H-pyrazole-3-carboxamide] | 6.7 | 6.7 | 126 nM
COC(C)(C)c1cc(-n2nc(C(N)=O)c(Cl)c2CC2CCCCC2)cc(C(C)(C)C)c1 [Example 315/1] | 6.0/6.0/6.0 | 6.0/6.0/6.0 | 1000 nM
Cn1c(C(=O)O)cc(-c2ccc(S(=O)(=O)NC(C)(C)C)c3ccccc23)c1CC1CCCCC1 [Example 317, 4-(4-(N-(tert-Butyl)sulfamoyl)naphthalen-1-yl)-5-(cyclohexylmethyl)-1-methyl-1H-pyrrole-2-carboxylic acid] | 6.9 | 6.9 | 1260 nM
CC(C)(C)NS(=O)(=O)c1ccc(-n2nc(C(=O)N[C@H]3C[C@H](C(=O)O)C3)nc2CC2CCCCC2)cc1C(C)(C)C [Example 318, trans-3-(1-(3-(tert-Butyl)-4-(N-(tert-butyl)sulfamoyl)phenyl)-5-(cyclohexylmethyl)-1H-1,2,4-triazole-3-carboxamido)cyclobutanecarboxylic acid] | < 4.7 | < 4.7 | 2000 nM
CC(C)(C)NS(=O)(=O)c1ccc(-n2nc(C(=O)NC3CCOCC3)nc2CC2CCCCC2)cc1C(C)(C)C [Example 318/1] | 6.2 | 6.2 | 2510 nM
Cc1c(C(=O)NC2CCOCC2)cc(-c2ccc(S(=O)(=O)NC(C)(C)C)c(C(F)(F)F)c2)n1CC(C(F)(F)F)C(F)(F)F [Example 319, 5-(4-(N-(tert-Butyl)sulfamoyl)-3-(trifluoromethyl)phenyl)-2-methyl-N-(tetrahydro-2H-pyran-4-yl)-1-(3,3,3-trifluoro-2-(trifluoromethyl)propyl)-1H-pyrrole-3-carboxamide] | 6.0 | 5.8 | 5010 nM
CC(=O)c1cc(-c2cc(C(C)(C)C)cc(C(C)(C)C)c2)n(CC2CCCCC2)c1C [Example 321, 1-(1-(Cyclohexylmethyl)-5-(3,5-di-tert-butylphenyl)-2-methyl-1H-pyrrol-3-yl)ethanone] | 5.8 | 6.0 | 794 nM
